# Data: US20170158636A1, “FUNCTIONALISED AND SUBSTITUTED CARBAZOLES AS ANTI-CANCER AGENTS” (Novogen Ltd., priority 2014, published 2017)
# pIC50: −log10 of the molar value.
# Assays:
# A375 melanoma xenograft = test: A375 melanoma flank xenograft model; assay type: in vivo; conditions: IV 60 mg/kg in 30% (w/v) Captisol daily for 16 days, mice
# Procedure: FIG. 5: Effect of compound 1001 on tumour growth in vivo. Compound 1001 was administered IV at 60 mg/kg for 16 days in a flank xenograft model of melanoma (A375). Tumour volume was measured every 2-3 days. **p<0.01, ***P<0.001.
# In vivo efficacy studies for compound 1001 were conducted using an A375 melanoma xenograft model in Foxn-1 nu/nu athymic mice. The human melanoma cell line A375 (sourced from American Type Culture Collection (ATCC), USA) was used for developing the flank xenograft model. Briefly, five million cells were injected subcutaneously in the right flank region of the animal. When the tumors reached 130-150 mm^3 the animals were randomized into two groups, each group with 8 animals in them, so that the average tumor volume of all the groups was same.
# Compound 1001 was delivered intravenously (IV) at 60 mg/kg in a 30% (w/v) Captisol (cyclodextrin-containing) formulation daily for 16 days. The control group was dosed with the Captisol vehicle alone.
# [1] = system: DU145 prostate cancer cells; test: Anti-proliferative activity, cell-titre luminescent viability assay; assay type: cell-based; conditions: Homo sapiens, DU-145, 72 hours exposure
# Procedure: (§1) The ability of compounds 1001-1018 and 1037-1039 to inhibit the proliferation of cancer cells representative of neuroblastoma, melanoma, prostate cancer, colorectal cancer, non-small cell lung carcinoma, and triple negative breast cancer was assessed (Table 1).
# (§2) Briefly, a pre-determined number of cells as calculated from cell growth assays for each of the cell lines employed were seeded into their respective culture medium (using ATCC culture parameters—http://www.atcc.org) and cultured for 24 hours at 37° C. and 5% CO2 in 96-well culture plates. Once attached, each cell line was then exposed to increasing concentrations of each respective analogue (0.03, 0.3, 3 and 30 μM for compounds 1001-13 and 1015-18; 0.1, 0.3, 1, 3, 10 and 30 μM for compounds 1014 and 1037-39), cultured for a further 72 hours and exposed to cell-titre luminescent reagent (100 μL/well) for a further 30 minutes) to measure cell viability. Luminescence was captured using an EnVision multilabel reader and the data for each analogue concentration compared against no treatment control. For compounds 1001-13 and 1015-18, semi-log plots of Percent of Control versus concentration were prepared and IC50 determined using linear regression analysis. For compounds 1014 and 1037-39, cell viability was normalized to control (vehicle alone) and dose-response curves, and half maximal effective concentration (EC50) values were determined using Graph Pad Prism 6 (nonlinear regression sigmoidal dose-response variable slope).
# SK-Mel-28 melanoma cells = test: as above; assay type: cell-based; conditions: Homo sapiens, 72 hours exposure
# Procedure: as §1, §2
# [2] = system: A549 lung (NSLC) cancer cells; test: as above; assay type: cell-based; conditions: Homo sapiens, 72 hours exposure
# Procedure: as §1, §2
# [3] = system: PC3 prostate cancer cells; test: as above; assay type: cell-based; conditions: 72 hours exposure
# Procedure: as §1, §2
# [4] = system: MDA-MB-231 breast cancer cells; test: as above; assay type: cell-based; conditions: Homo sapiens, 72 hours exposure
# Procedure: as §1, §2
# alpha-fast Tm = alpha-fast Tm (Homo sapiens, UniProt P09493); test: Cell free actin co-sedimentation assay; assay type: binding; conditions: 50 μM compound, 3 μM F-actin
# Sequence of alpha-fast Tm (P09493 whole entry): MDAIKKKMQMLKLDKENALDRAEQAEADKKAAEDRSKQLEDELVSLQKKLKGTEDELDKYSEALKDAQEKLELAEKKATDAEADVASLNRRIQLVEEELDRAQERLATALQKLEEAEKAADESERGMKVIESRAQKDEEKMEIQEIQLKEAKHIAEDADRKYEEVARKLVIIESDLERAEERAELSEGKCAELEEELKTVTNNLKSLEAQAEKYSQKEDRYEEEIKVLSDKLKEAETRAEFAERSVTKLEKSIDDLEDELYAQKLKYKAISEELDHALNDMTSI
# Procedure: (§3) FIG. 3: Impact of compound 1001 on the polymerization of tropomyosin and its subsequent association with actin. Increasing concentrations of (A) cytoskeletal Tpm3.1 or (B) muscle alpha-fast Tm (0.3-4.0 μM) were pre-incubated with 1% (v/v) DMSO (vehicle control) or 50 μM ATM-1001 prior to combining with 3 μM F-actin. The Tm/F-actin mixture was sedimented and the ratio of tropomyosin:actin in the pellet, normalized to the ratio that occurs at tropomyosin saturation, was plotted against the concentration of unbound tropomyosin in the supernatant.
# (§4) Cell free actin co-sedimentation assays were preformed to analyze the impact of compound 1001 on the polymerization of tropomyosin and subsequent association with actin. The impact of compound 1001 on Tpm3.1 binding was compared to the striated muscle isoform, alpha-fast Tm, which has an unrelated C-terminus.
# Tpm3.1 = Tpm3.1 (Homo sapiens, UniProt P06753); test: Cell free actin co-sedimentation assay; assay type: binding; conditions: 50 μM compound, 3 μM F-actin
# Sequence of Tpm3.1 (P06753 1-248 isoform P06753-2): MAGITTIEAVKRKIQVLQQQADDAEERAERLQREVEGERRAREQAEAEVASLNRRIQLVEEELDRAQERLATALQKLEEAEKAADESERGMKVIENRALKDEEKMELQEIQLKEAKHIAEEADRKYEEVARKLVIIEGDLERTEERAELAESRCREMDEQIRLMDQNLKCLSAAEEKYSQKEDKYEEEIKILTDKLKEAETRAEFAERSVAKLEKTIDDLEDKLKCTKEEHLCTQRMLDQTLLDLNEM
# Procedure: as §3, §4
# Skeletal myosin II = test: Actin-activated myosin II ATPase activity; assay type: biochemical; conditions: 50 μM, absence of Tpm3.1
# Procedure: FIG. 4: Effect of anti-tropomyosin compounds on actin-activated myosin II ATPase activity. Skeletal myosin II (30-60 nM) was incubated with 1% (v/v) DMSO or 50 μM of Blebbistatin, TR100 or compound 1001 for 5 min prior to mixing with 3 μM F-actin. Reactions were initiated with 1 mM ATP and inorganic phosphate release was detected spectrophotometrically. Data represents mean±SEM, for n=2-4 independent repeats. **P-value, 0.001<0.01.
# To exclude an off-target activity, the impact of compound 1001 and TR100 (another small molecule with anti-tropomyosin activity) on myosin II ATPase activity was evaluated in the absence of Tpm3.1. The small molecule blebbistatin was included as a positive control known to inhibit myosin II ATPase activity. Blebbistatin acts by binding to the myosin-ADP-Pi complex and slowing the release of inorganic phosphate (Kovacs et al., 2004). Myosin II was pre-incubated with 50 μM of blebbistatin, TR100 or 1001 prior to mixing with F-actin. […] Compound 1001 had no effect on myosin ATPase activity at equivalent concentrations to that of TR100 (FIG. 4).
# [5] = system: actin cytoskeleton in SK-N-SH neuroblastoma cells; test: Microfilament disruption assay (phalloidin staining, linear feature quantitation); assay type: cell-based; conditions: 0-40 μM, 24 hours post treatment
# Procedure: FIG. 1: Imaging and quantitation of actin filaments in SK-N-SH neuroblastoma cells treated with compound (A) 1007, (B) 1013 and (C) 1016. Cells were stained with 488-Atto-Phallodin and DAPI to visualize the actin filament bundles and the nucleus, respectively. Shown in the top panel is a representative gray scale immunofluorescent image from control (vehicle alone), 5 μM and 10 μM treated cells. […] The coloured lines indicate the detected actin filaments. Also shown is the quantitation of cell number, filament number/cell and filament number/cell area (μM^2). Statistical analysis was performed using a one way ANNOVA-multiple comparison where each drug treated group was compared to the control. ****p<0.0001, […].
# The ability of compounds 1007, 1013 and 1016 to disrupt the actin cytoskeleton was assessed in vitro using the microfilament disruption assay (FIG. 1).
# Briefly, SK-N-SH neuroblastoma cells were seeded at 1800 cells/well in a 384 Perkin Elmer High Content Imaging “Cell Carrier” plate and left to plate down 24 hours prior to treatment. Cells were then treated with 0-40 μM of the test compounds (1:2 serial dilution in a 10 point dose response). 24 hours post treatment, cells were fixed with 4% w/v paraformaldehyde (PBS), permeabilized with Triton-X-100 and stained with 488-Atto-Phallodin and DAPI to visualize the actin filament bundles and the nucleus respectively. Single plane images were obtained on the Perkin Elmer Opera confocal microscope using a 20× objective. Twelve fields of view per condition (representing approximately 300-800 cells) were imaged. Images were then exported and changes in the organization and numbers of actin filaments within the cell were quantitated using a linear feature detection algorithm developed by CSIRO (Vindin et al. 2014). This algorithm detects the “ridge lines” or “peaks” in local pixel intensity in the cell image. It is these “ridge lines” that correspond to actin filament bundles and allow us to quantitate the number of filaments per cell.
smiles,measurement,setting,value
"CN(C)CCCn1c2ccccc2c2cc(C(=O)N3CCN(CCc4ccccc4)CC3)ccc21 [Compound 1001, (9-(3-(dimethylamino)propyl)-9H-carbazol-3-yl)(4-phenethylpiperazin-1-yl)methanone]",reduction in melanoma tumor growth,A375 melanoma xenograft,~40%
same,tolerance of treatment,A375 melanoma xenograft,well tolerated
same,pIC50,[1],< 4.52
same,pIC50,SK-Mel-28 melanoma cells,5.64
same,pIC50,[2],5.07
same,pIC50,[3],5.26
same,pIC50,[4],5.36
same,binding affinity and cooperativity of alpha-fast Tm for F-actin,alpha-fast Tm,not affected
same,polymerization and association of Tpm3.1 with actin,Tpm3.1,profoundly inhibited
same,effect on actin-activated myosin II ATPase activity,Skeletal myosin II,no effect
same,disruption of the actin cytoskeleton,[5],"strong on-target, dose-dependent profile"
